How the values were obtained:
[1] = Serum pharmacokinetics, stratum A; type: in vivo, human; details: for AUC(0-t) / Cmax / half-life / Tmax: human, serum, oral; for AUC(0-t): 100 mg/m2, AUC0–T (AUC0–24h)
[2] = test system: phospho-PDGFR; details: C6 glioblastoma xenograft, single oral dose of 10 mg/kg, maintained for 3 h; ref Crenolanib Investigator's Brochure, AROG Pharmaceuticals, LLC, 2011; cited from earlier work
[3] = target: PDGF β receptor; details: cited from earlier work
[4] = target: PDGF α receptor; details: cited from earlier work
[5] = read-out: 50% inhibitory concentration

Work on `CC1(COc2ccc3c(c2)ncn3-c2ccc3cccc(N4CCC(N)CC4)c3n2)COC1` [crenolanib] yielded an AUC(0-t) ([1]; stratum A1 (whole tablets), 100 mg/m^2, D28, median (range)) of 7.34 µM·h, an AUC(0-t) ([1]; stratum A2 (crushed tablets), 100 mg/m^2, D28, median (range)) of 6.95 µM·h and a Cmax ([1]; 100 mg/m2, C MAX, stratum A1 (whole tablets), 100 mg/m^2, D1, median (range)) of 0.645 µM. The Cmax ([1]; 100 mg/m2, C MAX, stratum A1 (whole tablets), 100 mg/m^2, D28, median (range)) was 0.75 µM, the Cmax ([1]; 100 mg/m2, C MAX, stratum A2 (crushed tablets), 100 mg/m^2, D1, median (range)) was 0.692 µM and the Cmax ([1]; 100 mg/m2, C MAX, stratum A2 (crushed tablets), 100 mg/m^2, D28, median (range)) was 0.651 µM. The half-life ([1]; 100 mg/m2, Half-life, stratum A1 (whole tablets), 100 mg/m^2, D1, median (range)) was 8.5 h, the half-life ([1]; 100 mg/m2, Half-life, stratum A1 (whole tablets), 100 mg/m^2, D28, median (range)) was 4.9 h and the half-life ([1]; 100 mg/m2, Half-life, stratum A2 (crushed tablets), 100 mg/m^2, D1, median (range)) was 6.8 h. The half-life ([1]; 100 mg/m2, Half-life, stratum A2 (crushed tablets), 100 mg/m^2, D28, median (range)) was 5.1 h, the Tmax ([1]; 100 mg/m2, T MAX, stratum A1 (whole tablets), 100 mg/m^2, D1, median (range)) was 4 h and the Tmax ([1]; 100 mg/m2, T MAX, stratum A1 (whole tablets), 100 mg/m^2, D28, median (range)) was 6 h. The Tmax ([1]; 100 mg/m2, T MAX, stratum A2 (crushed tablets), 100 mg/m^2, D1, median (range)) was 2 h, the Tmax ([1]; 100 mg/m2, T MAX, stratum A2 (crushed tablets), 100 mg/m^2, D28, median (range)) was 4 h and the Cmax ([1]; 130 mg/m2, C MAX, stratum A, 130 mg/m^2, D1, median (range)) was 0.733 µM. It also gave a Cmax ([1]; 130 mg/m2, C MAX, stratum A, 130 mg/m^2, D28, median (range)) of 1.11 µM, a half-life ([1]; 130 mg/m2, Half-life, stratum A, 130 mg/m^2, D1, median (range)) of 7.3 h and a half-life ([1]; 130 mg/m2, Half-life, stratum A, 130 mg/m^2, D28, median (range)) of 6.1 h. The Tmax ([1]; 130 mg/m2, T MAX, stratum A, 130 mg/m^2, D1, median (range)) was 2 h, the Tmax ([1]; 130 mg/m2, T MAX, stratum A, 130 mg/m^2, D28, median (range)) was 4 h and the Cmax ([1]; 170 mg/m2, C MAX, stratum A, 170 mg/m^2, D1, median (range)) was 1.24 µM. The Cmax ([1]; 170 mg/m2, C MAX, stratum A, 170 mg/m^2, D28, median (range)) was 2.01 µM, the half-life ([1]; 170 mg/m2, Half-life, stratum A, 170 mg/m^2, D1, median (range)) was 8.5 h and the half-life ([1]; 170 mg/m2, Half-life, stratum A, 170 mg/m^2, D28, median (range)) was 7.2 h. It also gave a Tmax ([1]; 170 mg/m2, T MAX, stratum A, 170 mg/m^2, D1, median (range)) of 4 h, a Tmax ([1]; 170 mg/m2, T MAX, stratum A, 170 mg/m^2, D28, median (range)) of 3 h and a Cmax ([1]; 220 mg/m2, C MAX, stratum A, 220 mg/m^2, D1, median (range)) of 1.89 µM. For the same compound, the Cmax ([1]; 220 mg/m2, C MAX, stratum A, 220 mg/m^2, D28, median (range)) was 2.27 µM, the half-life ([1]; 220 mg/m2, Half-life, stratum A, 220 mg/m^2, D1, median (range)) was 6.75 h and the half-life ([1]; 220 mg/m2, Half-life, stratum A, 220 mg/m^2, D28, median (range)) was 5.5 h. The Tmax ([1]; 220 mg/m2, T MAX, stratum A, 220 mg/m^2, D1, median (range)) was 4 h, the Tmax ([1]; 220 mg/m2, T MAX, stratum A, 220 mg/m^2, D28, median (range)) was 2 h and the “AUC0–T (AUC0–∞)” value ([1]; stratum A1 (whole tablets), 100 mg/m^2, D1, median (range)) was 8683 (4566–15 895) h·nM. The “AUC0–T (AUC0–∞)” value ([1]; stratum A2 (crushed tablets), 100 mg/m^2, D1, median (range)) was 7397 (3759–16 455) h·nM, the “AUC0–T (AUC0–∞)” value ([1]; stratum A, 130 mg/m^2, D1, median (range)) was 5951 (2675–15 291) h·nM and the “inhibition of phospho-PDGFR” value [2] was 53%. For the same compound, the 50% inhibitory concentration [3] was about 0.4 ng/mL, the IC50 [3, 5] was about 0.902 nM and the 50% inhibitory concentration [4] was “approximately 1 ng/mL”. For the same compound, the IC50 [4, 5] was about 2.25 nM.

— article PMC8717895 (Neuro-oncology Advances, 2021)
